This passage reports Kd, ka and kd results from patent US12704458B2, “Critical angle reflection imaging for quantification of molecular interactions” (ARIZONA BOARD OF REGENTS ON BEHALF OF ARIZONA STATE …, priority 2020, dated 2026).

Experiment [1] has as its system glycoproteins on fixed HeLa cells. As to the kind of experiment: SPR imaging of WGA binding to glycoproteins on fixed HeLa cells. To be noted: gold surface, 50 μg/ml WGA, average of 10 cells. The protocol:
SPR was first used to measure glycoprotein-WGA interaction on fixed HeLa cells (FIG. 7a). The cells were cultured on a gold surface and fixed right before the measurement (FIG. 7b). PBS buffer was flowed over the surface to establish a baseline and then introduced 50 μg/ml WGA (FIG. 7c). Binding of WGA to the glycoproteins increased the surface refractive index and caused the SPR signal to increase. After the association process, PBS buffer was flowed in again to induce dissociation of WGA from the cells. […] The WGA was labeled with Alexa Fluor 488, allowing verification of the binding using fluorescence. Three fluorescence images were captured at different phases of the binding process: at the baseline, after association, and after dissociation (FIG. 7d) respectively. The fluorescence change, although weak, confirmed that the SPR signal was due to the binding.
(§1) All the cell-related experiments including CAR, SPR, transmitted and fluorescence measurements (FIGS. 7-9) were performed on an objective-based SPR microscope setup, which consisted of an inverted microscope (Olympus IX-81) and a 60× (NA 1.49) oil-immersion objective. The light source for CAR and SPR imaging was a superluminescent light emitting diode (SLD-260-HP-TOW-PD-670, Superlum, Ireland) with 670 nm wavelength. The light source for transmitted and fluorescence imaging were the stocking halogen and mercury lamp of the microscope, respectively. A CMOS camera (ORCA-Flash 4.0, Hamamatsu) was used to record the images. A gravity-based drug perfusion system (SF-77B, Warner Instruments, Connecticut) was used for delivering analytes to the cells.
HeLa, SH-EP1, and SH-EP1_α4β2 cells were obtained from the American Type Culture Collection. […]
(§2) WinSpall 3.01 (Resonant Technologies GmbH, Germany) was used to calculate the reflectivity as a function of incident angle for CAR and SPR. The recorded CAR and SPR images were processed with ImageAnalysis (Biosensing Instrument Inc.) and Fiji. […]

Experiment [2] shares this test system. As to the kind of experiment: CAR imaging of WGA binding to glycoproteins on fixed HeLa cells. To be noted: glass surface, ~61.0 degrees, 50 μg/ml WGA, average of the 9 cells. As for the experimental part:
Next, CAR imaging was used to repeat the glycoprotein-WGA binding measurement. The cells were cultured on a glass surface, and the bright field image and the corresponding CAR image of 9 cells are shown in FIG. 7e. The cells show dark patterns because they have higher refractive index than the background. θi was set at ~61.0 degrees with similar sensitivity to SPR. […] The minor disagreement in kinetic constants might reflect different surfaces and different light illumination depth between SPR and CAR. Fluorescence images captured during the CAR measurement confirmed the binding of WGA (FIG. 7g). […] For this reason, CAR is believed to be more compatible with fluorescence than SPR, and suitable for measuring biological samples that need simultaneous fluorescent labelling.
as §1
HeLa, SH-EP1, and SH-EP1_α4β2 cells were obtained from the American Type Culture Collection. The cells were cultured in Dulbecco's modified eagle medium (Lonza) with 10% fetal bovine serum (Invitrogen) and 1% penicillin and streptomycin in a humidified incubator at 37° C. with 5% CO2. […]
as §2

In general, Kd refers to a measure of binding affinity in units of concentration. Low readings indicate higher affinity, high ones lower affinity. On to “WGA: lectin that specifically binds N-acetylglucosamine structures in glycoproteins; with Alexa Fluor 488 tag, Thermo Fisher Scientific”, for which, in experiment [1], the affinity, expressed as Kd, was 53 ± 1 nM; the ka result was “(2.5±0.1)×10^3 M^−1s^−1”; the kd entry is listed as “(1.3±0.1)×10^−4 s^−1”. In addition, in experiment [2], the Kd amounted to 42 ± 1 nM, the ka entry was “(6.0±0.1)×10^3 M^−1s^−1” and the kd result is reported as “(2.6±0.1)×10^−4 s^−1”.
